Consider one molecule from patent US20190256827A1, “EPIGENOME EDITING SYSTEMS AND METHODS” (STC.UNM, priority 2017, published 2019).

Format in all cases: cell-based, human
In experiment [1] the test system is GRM2 mRNA in HEK293T cells. Nature of the experiment: qPCR of GRM2 mRNA levels. Conditions: GRM2 sgRNAs; ABA vs DMSO. On the procedure:
(§1) To determine if the new method can be used to modify H3K27Ac at other gene loci, sgRNAs were designed that target the promoter region of other genes with low expression levels in HEK293T cells, including GRM2, HBA and MYOD1 (Table 1).
(§2) Human embryonic kidney cell HEK293T (American Type Culture Collection, Manassas, Va.) was cultured in Dulbecco's modified Eagle's medium (DMEM) (Gibco) with 10% FBS (Atlanta Biologicals), 1× GlutaMax (Gibco, Thermo Fisher Scientific, Inc., Waltham, Mass.), and 1× penicillin/streptomycin (Pen/Strep; Gibco, Thermo Fisher Scientific, Inc., Waltham, Mass.). Cells (100,000/ml) were plated in 24-well or 10-cm cell culture plate the day before transfection. […]
(§3) Total RNA was extracted using the EZNA Total RNA Kit I (Omega Bio-tek, Inc., Norcross, Ga.). qPCR reactions were performed on cDNA prepared from 1,000 ng of total cellular RNA using the High-Capacity cDNA Reverse Transcription Kit (Applied Biosystems Co., Thermo Fisher Scientific, Inc., Foster City, Calif.). […] Data were analyzed using the SDS software, version 2.4 (Applied Biosystems Co., Thermo Fisher Scientific, Inc., Foster City, Calif.), by the ΔΔCt method: the Ct values of target gene were normalized to Ct values of GAPDH, the folds of target gene expression changes were normalized to experimental controls. Analyzed data are reported as the mean±s.e.m. for biological replicates. […]
(Real-time PCR tracks product formation cycle by cycle.)

For experiment [2], the system named is MYOD1 mRNA in HEK293T cells. Put plainly: qPCR of MYOD1 mRNA levels. Conditions: MYOD1 sgRNAs; ABA vs DMSO. The protocol: as §1, §2, §3
Experiment [3] has as its system HBA mRNA in HEK293T cells. Put plainly: qPCR of HBA mRNA levels. Conditions: HBA sgRNAs; ABA vs DMSO. The protocol: as §1, §2, §3
In experiment [4] the test system is GRM2 locus in HEK293T cells. Put plainly: ChIP-qPCR of FLAG-ABI-P300 and H3K27Ac at the GRM2 locus. The protocol: as §1
Human embryonic kidney cell HEK293T (American Type Culture Collection, Manassas, Va.) was cultured in Dulbecco's modified Eagle's medium (DMEM) (Gibco) with 10% FBS (Atlanta Biologicals), 1× GlutaMax (Gibco, Thermo Fisher Scientific, Inc., Waltham, Mass.), and 1× penicillin/streptomycin (Pen/Strep; Gibco, Thermo Fisher Scientific, Inc., Waltham, Mass.). Cells (100,000/ml) were plated in 24-well or 10-cm cell culture plate the day before transfection. For each well of 24-well plate transfection, 500 ng of dCas9-PYL-HA, 420 ng of FLAG-ABI-P300, and a total amount of 200-ng mix of gRNAs, with a 50-ng per each gRNA, were mixed with 50×(v/w) Opti-MEM (Gibco, Thermo Fisher Scientific, Inc., Waltham, Mass.), then incubate with the same volume of 3 μg PEI-Opti-MEM solution for 20 minutes at room temperature. Then, 100 μL of PEI-combined plasmids were added to every single well of 24-well plate and cultured for 24 hours before experiments were performed. For a 10 cm plate, 1 mL of PEI-combined plasmids were needed. After six hours transfection, cells were washed and incubated for another 1-72 hours before experiments were performed.
ChIP protocol was optimized from the method in Molecular Cloning, Fourth edition (Cold Spring Harbor Laboratory Press, 2012). In brief, cells cultured in a 10-cm plate were fixed with 1 mL of cross-linking buffer (0.1 M NaCl, 1 mM EDTA, 0.5 mM EGTA, 50 mM HEPES and 11% formaldehyde), and shaken in room temperature for 15 minutes. Then 1.1 mL of 1.25 M glycine was added to the solution to stop crosslinking. After washing three times in ice cold PBS, cells were scraped and suspended in 10 mL of lysis buffer (50 mM HEPES, 140 mM NaCl, 1 mM EDTA, 10% Glycerol, 0.5% NP40, 0.25% Triton X-100), and rocked at 4° C. for 10 minutes. […]

Where [5] appears, read: GRM2 sgRNAs, ABA treatment for 48 hours.

Consider `CC1=CC(=O)CC(C)(C)[C@@]1(O)/C=C/C(C)=C\C(=O)O` [ABA, abscisic acid], for which the “level of GRM2 mRNA” value in experiment [1] is recorded as “increases correspondingly”. The “level of MYOD1 mRNA” value in experiment [2] was “increases correspondingly”. The “level of HBA mRNA” value in experiment [3] is listed as “increases correspondingly”. Moreover, in experiment [4] (ABA 4-24 hours, then washing and 24 hours without ABA), the “induction and reversibility of H3K27Ac enrichment at the GRM2 locus” value is “rapidly induced upon ABA addition and reversed after ABA removal”. Further, in experiment [4] (setting [5]), the “enrichment of FLAG-ABI-P300 at the GRM2 locus” value is “causes the enrichment” and the “enrichment of H3K27Ac at the GRM2 locus” value is listed as “causes the enrichment”.
